Assay results reported in patent US20040176357A1, “2 Methyl-thieno-benzodiazepine lyophilized formulation” (priority 2001, published 2004).

Columns and labels:
[1] = solubility in parenteral diluents; conditions: parenteral diluents suitable for injection
[2] = rate of absorption after parenteral versus oral administration; type: in vivo; conditions: such as IM, versus oral administration of the same dose
Procedure: Intramuscular injection is the preferred mode of delivery to the mammal being treated particularly in emergency situations. […] Preferably the lyophilized pharmaceutical formulation of this invention is diluted with aqueous solvent suitable for injection and a liquid unit dosage form prepared for administration to a mammal.

Structure (SMILES): Cc1cc2c(s1)Nc1ccccc1N=C2N1CCN(C)CC1 [Form II]
- solubility in parenteral diluents [1]: does not readily dissolve

Structure (SMILES): Cc1cc2c(s1)Nc1ccccc1N=C2N1CCN(C)CC1 [olanzapine, 2-methyl-4-(4-methyl-1-piperazinyl)-10H-thieno[2,3-b][1,5]benzodiazepine]
- solubility in parenteral diluents [1]: relatively insoluble
- rate of absorption [2]: more rapid
